According to publication PMC10458444 (Viruses, 2023):
Counter-ions that a name gives are not always drawn.

Columns and labels:
[1] = Cytotoxicity assay (CCK-8); conditions: human, HEK293T-hACE2 cells
[2] = test system: SARS-CoV-2 Omicron BA.4 PsV; assay type: cell-based
MERS-CoV PsV = experiment: microbe, parasite or virus in culture; assay type: cell-based; conditions: Middle East respiratory syndrome-related coronavirus, 48 h, read-out: IC50, inhibition of MERS-CoV PsV infection
SARS-CoV-2 (D614) PsV = experiment: microbe, parasite or virus in culture; assay type: cell-based; conditions: for IC50: Severe acute respiratory syndrome coronavirus 2, 48 h, read-out: IC50, inhibition of SARS-CoV-2 (D614) PsV infection
SARS-CoV PsV = experiment: microbe, parasite or virus in culture; assay type: cell-based; conditions: Severe acute respiratory syndrome coronavirus, 48 h, read-out: IC50, inhibition of SARS-CoV PsV infection
SARS-CoV-2 PsV (D614) = experiment: Time-of-addition assay; assay type: cell-based; conditions: compound added 8 h after the addition of SARS-CoV-2 PsV
[3] = test system: SARS-CoV-2 spike-pseudovirus (D614); design: species or system K18-hACE2 transgenic mice; conditions: mouse, in vivo
SARS-CoV-2 spike protein = SARS-CoV-2 spike protein (Severe acute respiratory syndrome coronavirus 2, UniProt P0DTC2); assay type: cell-based; conditions: co-incubated with PsV 1 h, HEK293T-hACE2 cells 12 h, Western blotting

Question: With `CC(=O)c1ccc2c(c1)N(CCCN(C)C)c1ccccc1S2` [Acepromazine maleate, acepromazine maleate] as the compound, how does the CC50 at 48 h [1] read?
Answer: The CC50 at 48 h was 93300 ± 11500 nM.

Question: What about the “inhibitory activity in primary screening against Omicron (BA.4) PsV” value [2] of the same compound?
Answer: The value was “significant inhibitory activities”.

Question: What about the IC50 (MERS-CoV PsV) of the same compound?
Answer: Its IC50 is 1580 nM.

Question: What about the “SI, selectivity index = CC50/IC50” value (SARS-CoV-2 (D614) PsV) of the same compound?
Answer: Its value is 51.179.

Question: What about the IC50 (SARS-CoV-2 (D614) PsV) of the same compound?
Answer: Its IC50 is 1820 ± 230 nM.

Question: And the IC50 (SARS-CoV PsV)?
Answer: Its IC50 is 1390 nM.

Question: For `CC(CN(C)C)CN1c2ccccc2Sc2ccccc21` (stereo not drawn) [Alimemazine hemitartrate, alimemazine hemitartrate], which CC50 at 48 h [1] is on record?
Answer: Its CC50 at 48 h is 53400 ± 10900 nM.

Question: And the IC50 (MERS-CoV PsV)?
Answer: Its IC50 is 1220 nM.

Question: What about the “SI, selectivity index = CC50/IC50” value (SARS-CoV-2 (D614) PsV) of the same compound?
Answer: Its value is 111.929.

Question: What about the IC50 (SARS-CoV-2 (D614) PsV) of the same compound?
Answer: The IC50 was 477 ± 124 nM.

Question: What about the IC50 (SARS-CoV PsV) of the same compound?
Answer: Its IC50 is 356 nM.

Question: Which CC50 at 48 h [1] does the source give for `CCCCCCCCCC(=O)OCCN1CCN(CCCN2c3ccccc3Sc3ccc(C(F)(F)F)cc32)CC1` [Fluphenazine decanoate, fluphenazine decanoate] here?
Answer: Its CC50 at 48 h is 61600 ± 28800 nM.

Question: What about the IC50 (MERS-CoV PsV) of the same compound?
Answer: The IC50 was 2640 nM.

Question: What about the “SI, selectivity index = CC50/IC50” value (SARS-CoV-2 (D614) PsV) of the same compound?
Answer: Its value is 15.775.

Question: What about the IC50 (SARS-CoV-2 (D614) PsV) of the same compound?
Answer: The IC50 was 3900 ± 1090 nM.

Question: What about the IC50 (SARS-CoV PsV) of the same compound?
Answer: Its IC50 is 3960 nM.

Question: Which results are given for `OCCN1CCN(CCCN2c3ccccc3Sc3ccc(Cl)cc32)CC1` [Perphenazine, perphenazine]?
Answer: CC50 at 48 h [1]: 18100 ± 1450 nM; inhibitory activity in primary screening against Omicron (BA.4) PsV [2]: significant inhibitory activities; IC50 (MERS-CoV PsV): 1280 nM; SI, selectivity index = CC50/IC50 (SARS-CoV-2 (D614) PsV): 21.805; IC50 (SARS-CoV-2 (D614) PsV): 831 ± 120 nM; IC50 (SARS-CoV PsV): 1160 nM

Question: With `CN1CCN(CCCN2c3ccccc3Sc3ccc(Cl)cc32)CC1` [Prochlorperazine maleate, prochlorperazine maleate] as the compound, how does the “inhibitory activity, time of addition” value (SARS-CoV-2 PsV (D614)) read?
Answer: Its value is “about 20%”.

Question: And the “infection, luciferase gene expression in lung tissues (RT-qPCR)” value [3]?
Answer: Its value is “significantly inhibited”.

Question: And the “viral load, HIV-1 Gag p55 and p24 protein levels in lung” value [3]?
Answer: The value was “significant reduction in the viral load”.

Question: And the CC50 at 48 h [1]?
Answer: The CC50 at 48 h was 85200 ± 13900 nM.

Question: Which “effect on cleavage of S protein in cells (full-length S protein level)” value (SARS-CoV-2 spike protein) does the source give for teicoplanin here?
Answer: Its value is “prevented the cleavage of S protein”.
